Laboratory results reported in ChEMBL document CHEMBL1148597, “New tyrosinase inhibitors selected by atomic linear indices-based classification models” (Bioorg Med Chem Lett, 2006).

biological target: T1, Tyrosinase (Homo sapiens, UniProt P14679); experiment: Inhibitory activity against tyrosinase
T1 sequence (P14679 whole entry): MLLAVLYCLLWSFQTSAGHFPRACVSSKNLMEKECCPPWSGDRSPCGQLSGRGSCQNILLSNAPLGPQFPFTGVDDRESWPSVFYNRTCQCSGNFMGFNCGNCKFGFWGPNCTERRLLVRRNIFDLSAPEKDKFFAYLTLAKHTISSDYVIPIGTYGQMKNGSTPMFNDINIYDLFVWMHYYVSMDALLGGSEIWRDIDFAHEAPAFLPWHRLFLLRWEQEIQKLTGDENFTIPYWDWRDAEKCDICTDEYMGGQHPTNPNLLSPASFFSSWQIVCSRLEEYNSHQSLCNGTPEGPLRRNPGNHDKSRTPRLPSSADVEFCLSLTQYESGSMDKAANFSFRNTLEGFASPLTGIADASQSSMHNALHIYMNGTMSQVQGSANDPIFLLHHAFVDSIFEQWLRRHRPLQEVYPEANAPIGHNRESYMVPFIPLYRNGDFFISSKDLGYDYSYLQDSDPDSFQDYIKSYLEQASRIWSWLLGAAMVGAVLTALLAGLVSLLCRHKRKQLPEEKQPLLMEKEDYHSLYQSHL

For `CC(C)(O)CCC(=O)[C@@](C)(O)[C@H]1[C@H](O)C[C@@]2(C)[C@@H]3CC=C4[C@@H](C=C(O[C@@H]5O[C@H](CO)[C@@H](O)[C@H](O)[C@H]5O)C(=O)C4(C)C)[C@]3(C)C(=O)C[C@]12C` [BRYOAMARIDE], which IC50 is on record?
Its IC50 is 85 µM.

With `C[C@@H]1C[C@H]2O[C@]3(C[C@@]4(C)[C@@H]5[C@@H](O)C[C@H]6C(C)(C)[C@@H](O[C@@H]7OC[C@@H](O)[C@H](O)[C@H]7O)CC[C@@]67C[C@@]57CC[C@]4(C)[C@@H]13)O[C@@H]2C(C)(C)O[C@@H]1O[C@H](CO)[C@@H](O)[C@H](O)[C@H]1O` [CYCLOORBICOSIDE G] as the compound, how does the IC50 read?
Its IC50 is 54.6 µM.

For `CC(=O)O[C@@H]1[C@@H](O[C@@H]2OC[C@H](O)[C@H](O)[C@H]2O)[C@H](O[C@H]2CC[C@]34C[C@]35CC[C@]3(C)[C@@H]([C@@]6(C)CC[C@H](C(C)(C)O)O6)[C@@H](O)C[C@@]3(C)[C@@H]5C[C@H](O[C@@H]3OC[C@@H](O)[C@H](O)[C@H]3O)[C@H]4C2(C)C)OC[C@H]1O` [ASKENDOSIDE B], which IC50 is on record?
The IC50 was 13.9 µM.

For `CC(C)(O)[C@@H]1CC[C@](C)([C@H]2[C@@H](O)C[C@@]3(C)[C@@H]4C[C@H](O[C@@H]5OC[C@@H](O)[C@H](O)[C@H]5O)[C@H]5C(C)(C)[C@@H](O[C@@H]6OC[C@@H](O)[C@H](O)[C@H]6O[C@@H]6OC[C@H](O)[C@H](O)[C@H]6O)CC[C@@]56C[C@@]46CC[C@]23C)O1` [ASKENDOSIDE D], which IC50 is on record?
Its IC50 is 48.9 µM.

For `C[C@@H]1O[C@@H](O[C@H]2C[C@@H]3[C@]4(CC[C@]5(C)[C@@H]([C@@]6(C)CC[C@@H](C(C)(C)O)O6)[C@@H](O)C[C@@]35C)C[C@@]43CC[C@H](O[C@@H]4OC[C@@H](O)[C@H](O)[C@H]4O)C(C)(C)[C@H]23)[C@H](O)[C@H](O)[C@H]1O` [CYCLOCARPOSIDE], which IC50 is on record?
The IC50 was 102 µM.

`CC(C)(O)[C@@H]1CC[C@](C)([C@H]2[C@@H](O)C[C@@]3(C)[C@@H]4C[C@H](O[C@H]5O[C@@H](CO)[C@H](O)[C@H](O)[C@@H]5O)[C@H]5C(C)(C)[C@@H](O[C@@H]6OC[C@@H](O)[C@H](O)[C@H]6O)CC[C@@]56C[C@@]46CC[C@]23C)O1` [CYCLOSIEVERSIOSIDE] was tested. Which IC50 did it give?
Its IC50 is 92.3 µM.
